Data published in ChEMBL document CHEMBL1201862, “PubChem BioAssay data set” (2004).
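Interpolation was linear, between the two tested concentrations surrounding the appropriate level; five concentrations were tested over 48 hours in 96-well plates. Abbreviation: GI50, concentration required for 50% inhibition of growth.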 Active and inactive are the calls of the source. Rule as the data show it: active = GI50 up to about 1.1 µM and inactive = higher.

Experiments:
Experiment in all cases: DTP human tumour cell line panel, 48 h
786-0 = system: 786-0
SK-OV-3 = system: SK-OV-3
LOX IMVI = system: LOX IMVI
HCT-116 = system: HCT-116
OVCAR-4 = system: OVCAR-4
MDA-N = system: MDA-N
HOP-92 = system: HOP-92
TK-10 = system: TK-10
HCC 2998 = system: HCC 2998
RPMI-8226 = system: RPMI-8226
A498 = system: A498
KM12 = system: KM12
HOP-62 = system: HOP-62
EKVX = system: EKVX
HCT-15 = system: HCT-15
SN12C = system: SN12C
NCI-H460 = system: NCI-H460
SF-295 = system: SF-295
T47D = system: T47D
SK-MEL-5 = system: SK-MEL-5
K562 = system: K562
U-251 = system: U-251
RXF 393 = system: RXF 393
ACHN = system: ACHN
OVCAR-3 = system: OVCAR-3
SNB-75 = system: SNB-75
CCRF-CEM = system: CCRF-CEM
UO-31 = system: UO-31
OVCAR-8 = system: OVCAR-8
SF-539 = system: SF-539
COLO 205 = system: COLO 205
UACC-62 = system: UACC-62
MDA-MB-435 = system: MDA-MB-435
IGROV-1 = system: IGROV-1
SNB-19 = system: SNB-19
MOLT-4 = system: MOLT-4
NCI-H226 = system: NCI-H226
SW-620 = system: SW-620
CAKI-1 = system: CAKI-1
SF-268 = system: SF-268
NCI-H522 = system: NCI-H522
Malme-3M = system: Malme-3M
PC-3 = system: PC-3
HT-29 = system: HT-29
A549 = system: A549
NCI/ADR-RES = system: NCI/ADR-RES
M14 = system: M14
SK-MEL-2 = system: SK-MEL-2
MDA-MB-231 = system: MDA-MB-231
SK-MEL-28 = system: SK-MEL-28
DU-145 = system: DU-145
NCI-H23 = system: NCI-H23
OVCAR-5 = system: OVCAR-5
BT-549 = system: BT-549
UACC-257 = system: UACC-257
Hs-578T = system: Hs-578T

With C#C[C@@H](OC(=O)c1ccc([N+](=O)[O-])cc1)[C@@H]1C[C@H]2O[C@@H]([C@H](C/C=C/CC)OC(=O)c3ccc([N+](=O)[O-])cc3)C[C@H]2O1 the GI50 (786-0) was > 100 µM (inactive), the GI50 (SK-OV-3) was > 100 µM (inactive) and the GI50 (LOX IMVI) was > 100 µM (inactive). For the same molecule, the GI50 (HCT-116) was > 100 µM (inactive), the GI50 (OVCAR-4) was > 100 µM (inactive) and the GI50 (MDA-N) was > 100 µM (inactive). For the same molecule, the GI50 (HOP-92) was > 100 µM (inactive), the GI50 (TK-10) was > 100 µM (inactive) and the GI50 (HCC 2998) was > 100 µM (inactive). For the same molecule, the GI50 (RPMI-8226) was > 100 µM (inactive), the GI50 (A498) was > 100 µM (inactive) and the GI50 (KM12) was > 100 µM (inactive). The GI50 (HOP-62) was > 100 µM (inactive), the GI50 (EKVX) was > 100 µM (inactive) and the GI50 (HCT-15) was greater than 100 µM. The GI50 (SN12C) was > 100 µM (inactive), the GI50 (NCI-H460) was > 100 µM (inactive) and the GI50 (SF-295) was > 100 µM (inactive). For the same molecule, the GI50 (T47D) was > 100 µM (inactive), the GI50 (SK-MEL-5) was > 100 µM (inactive) and the GI50 (K562) was > 100 µM (inactive). For the same molecule, the GI50 (U-251) was > 100 µM (inactive), the GI50 (RXF 393) was > 100 µM (inactive) and the GI50 (ACHN) was > 100 µM (inactive). For the same molecule, the GI50 (OVCAR-3) was > 100 µM (inactive), the GI50 (SNB-75) was > 100 µM (inactive) and the GI50 (CCRF-CEM) was > 100 µM (inactive). The GI50 (UO-31) was > 100 µM (inactive), the GI50 (OVCAR-8) was > 100 µM (inactive) and the GI50 (SF-539) was > 100 µM (inactive). The GI50 (COLO 205) was > 100 µM (inactive), the GI50 (UACC-62) was > 100 µM (inactive) and the GI50 (MDA-MB-435) was > 100 µM (inactive). The GI50 (IGROV-1) was 83.4 µM (inactive), the GI50 (SNB-19) was > 100 µM (inactive) and the GI50 (MOLT-4) was > 100 µM (inactive). The GI50 (NCI-H226) was > 100 µM (inactive), the GI50 (SW-620) was > 100 µM (inactive) and the GI50 (CAKI-1) was > 100 µM (inactive). For the same molecule, the GI50 (SF-268) was > 100 µM (inactive), the GI50 (NCI-H522) was 32.6 µM (inactive) and the GI50 (Malme-3M) was > 100 µM (inactive). For the same molecule, the GI50 (PC-3) was > 100 µM (inactive), the GI50 (HT-29) was > 100 µM (inactive) and the GI50 (A549) was > 100 µM (inactive). The GI50 (NCI/ADR-RES) was > 100 µM (inactive), the GI50 (M14) was > 100 µM (inactive) and the GI50 (SK-MEL-2) was > 100 µM (inactive). For the same molecule, the GI50 (MDA-MB-231) was > 100 µM (inactive), the GI50 (SK-MEL-28) was > 100 µM (inactive) and the GI50 (DU-145) was > 100 µM (inactive). For the same molecule, the GI50 (NCI-H23) was > 100 µM (inactive), the GI50 (OVCAR-5) was > 100 µM (inactive) and the GI50 (BT-549) was > 100 µM (inactive). For the same molecule, the GI50 (UACC-257) was > 100 µM (inactive) and the GI50 (Hs-578T) was > 100 µM (inactive).
